This note sets out measurements from patent publication US9221792B2, “N-(4-(azetidine-1-carbonyl) phenyl)-(hetero-) arylsulfonamide derivatives as pyruvate kinase M2 (PMK2) modulators” (AGIOS PHARMACEUTICALS, INC, priority 2010, dated 2015).

Chain of PKM2 (P14618 whole entry): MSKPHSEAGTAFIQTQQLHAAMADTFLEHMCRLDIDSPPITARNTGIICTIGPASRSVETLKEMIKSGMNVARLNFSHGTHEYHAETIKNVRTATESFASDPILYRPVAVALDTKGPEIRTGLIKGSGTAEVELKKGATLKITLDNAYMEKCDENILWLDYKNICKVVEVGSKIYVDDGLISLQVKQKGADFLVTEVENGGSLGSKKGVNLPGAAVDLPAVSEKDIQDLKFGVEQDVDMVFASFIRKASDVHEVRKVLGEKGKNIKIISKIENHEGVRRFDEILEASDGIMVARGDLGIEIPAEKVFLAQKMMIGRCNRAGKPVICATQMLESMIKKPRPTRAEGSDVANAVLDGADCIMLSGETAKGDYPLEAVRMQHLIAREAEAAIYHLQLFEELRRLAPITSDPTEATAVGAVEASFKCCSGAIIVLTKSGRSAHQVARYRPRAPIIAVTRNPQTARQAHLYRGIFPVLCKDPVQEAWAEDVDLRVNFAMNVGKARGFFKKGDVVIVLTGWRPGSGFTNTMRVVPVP

The first assay concerns the target PKM2 (Homo sapiens, UniProt P14618). In words: PKM2 Assay (activation, LDH-coupled NADH absorbance at 340 nm). Type of assay: biochemical.
Conditions: not given
How it is done:
• PKM2 stock enzyme solution was diluted in Reaction Buffer • 2 μL of compound was added into each well first, and then 180 μL of the Reaction Mix was added. • Reaction mixture with compound (without ADP) were incubated for 30 minutes at 4° C. • Plates were re-equilibrated to room temperature prior to adding 20 μL ADP to initiate the reaction. • Reaction progress was measured as changes in absorbance at 340 nm wavelength at room temperature (25° C.) Reaction Mix: PKM2 (50 ng/well), ADP (0.7 mM), PEP (0.15 mM), NADH (180 μM), LDH (2 units) in Reaction Buffer Reaction Buffer: 100 mM KCl, 50 mM Tris pH 7.5, 5 mM MgCl2, 1 mM DTT, 0.03% BSA.
Certain compounds of Formula I were tested in the above-described assay. A compound described herein may be tested for its ability to activate PKM2. The activation activity of these compounds is represented as an AC50 in Table 2 and throughout the application. […] “B” refers to an activator of PKM2 with an EC50 between 100 nM and 1 μM. “C” refers to an activator of PKM2 with an EC50 between 1 μM and 10 μM. “D” refers to an activator of PKM2 with an EC50 greater than 10 μM. “NA” refers to data that is not available.
A word on the AC50: it is the concentration at which the activity in the assay is half-maximal. `O=C(Cc1ccccc1)OC1CN(C(=O)c2ccc(NS(=O)(=O)c3cccc4cccnc34)cc2)C1` [Compound 123, 1-(4-(Quinoline-8-sulfonamido)benzoyl)azetidin-3-yl 2-phenylacetate] had a concentration at half-maximal activity (AC50) of 0.1 to 1 µM.

Still in this assay, the particulars now being: activation of PKM2; PKM2 50 ng/well, ADP 0.7 mM, PEP 0.15 mM, room temperature (25° C.); read-out: AC50.
Take `O=C(c1ccc(NS(=O)(=O)c2cccc3cccnc23)cc1)N1CC(Oc2ccccc2)C1` [Compound 100]: the concentration at half-maximal activity (AC50) lay in the range of 0.1 to 1 µM.
Still for that read-out and setting: as for `O=C(c1ccc(NS(=O)(=O)c2cccc3cccnc23)cc1)N1CC(O)(Cc2ccccc2)C1` [Compound 101, N-(4-(3-benzyl-3-hydroxyazetidine-1-carbonyl)phenyl)quinoline-8-sulfonamide], the figure is less than 0.1 µM.
The same measure, in the same setting: as for `O=C(OC1CN(C(=O)c2ccc(NS(=O)(=O)c3cccc4cccnc34)cc2)C1)c1ccccn1` [Compound 102, 1-(4-(Quinoline-8-sulfonamido)benzoyl)azetidin-3-yl picolinate], the figure is 1 to 10 µM; as for `Cc1cc(C(=O)N2CC(NC(=O)c3ccccn3)C2)ccc1NS(=O)(=O)c1cccc2cccnc12` [Compound 103, N-(1-(3-Methyl-4-(quinoline-8-sulfonamido)benzoyl)azetidin-3-yl)picolinamide], 0.1 to 1 µM.
Same read-out and setting: as for `O=C(NC1CN(C(=O)c2ccc(S(=O)(=O)Nc3cccc4cccnc34)cc2)C1)c1ccccn1` [Compound 104], the figure is more than 10 µM.
For `COC1(Cc2ccccc2)CN(C(=O)c2ccc(NS(=O)(=O)c3cccc4cccnc34)cc2)C1` [Compound 105, N-(4-(3-benzyl-3-methoxyazetidine-1-carbonyl)phenyl)quinoline-8-sulfonamide], the AC50 lay in the range of 0.1 to 1 µM.
On the same count and under the same terms, as for `Cc1cc(C(=O)N2CC(Oc3ccccc3)C2)ccc1NS(=O)(=O)c1cccc2cccnc12` [Compound 106], the figure is less than 0.1 µM.
On the same count and under the same terms, as for `O=C(c1ccc(NS(=O)(=O)c2cccc3cccnc23)c(F)c1)N1CC(Oc2ccccc2)C1` [Compound 107], the figure is 0.1 to 1 µM; as for `O=C(c1ccc(NS(=O)(=O)c2cccc3cccnc23)cc1)N1CC(OCc2ccccc2)C1` [Compound 108, N-(4-(3-(benzyloxy)azetidine-1-carbonyl)phenyl)quinoline-8-sulfonamide], 0.1 to 1 µM; as for `Cc1cc(C(=O)N2CC(N(C)Cc3ccccc3)C2)ccc1NS(=O)(=O)c1cccc2cccnc12` [Compound 109, N-(4-(3-(benzyl(methyl)amino)azetidine-1-carbonyl)-2-methylphenyl)quinoline-8-sulfonamide], 0.1 to 1 µM.
As for `Cc1cc(C(=O)N2CC(OC(=O)c3ccccn3)C2)ccc1NS(=O)(=O)c1cccc2cccnc12` [Compound 110, 1-(3-Methyl-4-(quinoline-8-sulfonamido)benzoyl)azetidin-3-yl picolinate], the AC50 fell in the range of 0.1 to 1 µM.
On the same count and under the same terms, as for `O=C(NC1CN(C(=O)c2ccc(NS(=O)(=O)c3cccc4cccnc34)cc2)C1)c1ccccn1` [Compound 111, N-(1-(4-(Quinoline-8-sulfonamido)benzoyl)azetidin-3-yl)picolinamide], the figure is 1 to 10 µM; as for `O=C(c1ccc(NS(=O)(=O)c2cccc3cccnc23)cc1)N1CC(Nc2ccccc2)C1` [Compound 112], less than 0.1 µM.
The same measure, in the same setting: as for `COc1ccccc1NC1CN(C(=O)c2ccc(NS(=O)(=O)c3cccc4cccnc34)cc2)C1` [Compound 113], the figure is less than 0.1 µM.
Turning to `COc1ccccc1NC1CN(C(=O)c2ccc(NS(=O)(=O)c3cccc4cccnc34)c(C)c2)C1` [Compound 114], the AC50 is less than 0.1 µM.
As for `COc1ccccc1NC1CN(C(=O)c2ccc(NS(=O)(=O)c3cccc4cccnc34)c(F)c2)C1` [Compound 115], the AC50 lay within 0.1 to 1 µM.
The same measure, in the same setting: as for `COc1ccccc1NC1CN(C(=O)c2ccc(S(=O)(=O)Nc3cccc4cccnc34)cc2)C1` [Compound 116], the figure is more than 10 µM; as for `COc1ccccc1N(C)C1CN(C(=O)c2ccc(NS(=O)(=O)c3cccc4cccnc34)cc2)C1` [Compound 117], 0.1 to 1 µM.
On to `O=C(c1ccc(NS(=O)(=O)c2cccc3cccnc23)c(F)c1)N1CC(Nc2ccccc2)C1` [Compound 118], for which the half-maximal activity concentration (AC50) is 0.1 to 1 µM.
Same read-out and setting: as for `O=C(c1ccc(S(=O)(=O)Nc2cccc3cccnc23)cc1)N1CC(OCc2ccccc2)C1` [Compound 119], the figure is 1 to 10 µM; as for `Cc1cc(C(=O)N2CC(OCc3ccccc3)C2)ccc1NS(=O)(=O)c1cccc2cccnc12` [Compound 120, N-(4-(3-(benzyloxy)azetidine-1-carbonyl)-2-methylphenyl)quinoline-8-sulfonamide], 0.1 to 1 µM.
The same measure, in the same setting: as for `O=C(NC1CN(C(=O)c2ccc(NS(=O)(=O)c3cccc4cccnc34)c(F)c2)C1)c1ccccn1` [Compound 121, N-(1-(3-Fluoro-4-(quinoline-8-sulfonamido)benzoyl)azetidin-3-yl)picolinamide], the figure is 1 to 10 µM; as for `CN(c1ccccc1)C1CN(C(=O)c2ccc(NS(=O)(=O)c3cccc4cccnc34)cc2)C1` [Compound 122], less than 0.1 µM; as for `O=C(OC1CN(C(=O)c2ccc(NS(=O)(=O)c3cccc4cccnc34)c(F)c2)C1)c1ccccn1` [Compound 124, 1-(3-Fluoro-4-(quinoline-8-sulfonamido)benzoyl)azetidin-3-yl picolinate], 1 to 10 µM.
Same read-out and setting: as for `CC1(O)CN(C(=O)c2ccc(NS(=O)(=O)c3cccc4cccnc34)c(F)c2)C1` [Compound 125], the figure is more than 10 µM; as for `CC1(O)CN(C(=O)c2ccc(NS(=O)(=O)c3cccc4cccnc34)cc2)C1` [Compound 126], more than 10 µM; as for `COc1cc(NS(=O)(=O)c2cccc3cccnc23)ccc1C(=O)N1CC(C)(O)C1` [Compound 127], 1 to 10 µM.
Turning to `COc1ccccc1N(C)C1CN(C(=O)c2ccc(S(=O)(=O)Nc3cccc4cccnc34)cc2)C1` [Compound 128], the AC50 is more than 10 µM.
Same read-out and setting: as for `COc1ccccc1OC1CN(C(=O)c2ccc(NS(=O)(=O)c3cccc4cccnc34)cc2)C1` [Compound 129], the figure is 0.1 to 1 µM; as for `COc1cc(NS(=O)(=O)c2cccc3cccnc23)ccc1C(=O)N1CC(O)(Cc2ccccc2)C1` [Compound 130, N-(4-(3-benzyl-3-hydroxyazetidine-1-carbonyl)-3-methoxyphenyl)quinoline-8-sulfonamide], less than 0.1 µM.
Still for that read-out and setting: as for `Cc1cc(C(=O)N2CC(O)(Cc3ccccc3)C2)ccc1NS(=O)(=O)c1cccc2cccnc12` [Compound 131, N-(4-(3-benzyl-3-hydroxyazetidine-1-carbonyl)-2-methylphenyl) quinoline-8-sulfonamide], the figure is less than 0.1 µM; as for `Cc1cc(C(=O)N2CC(OC(=O)NC(C)C)C2)ccc1NS(=O)(=O)c1cccc2cccnc12` [Compound 132, 1-(3-Methyl-4-(quinoline-8-sulfonamido)benzoyl)azetidin-3-yl isopropylcarbamate], 0.1 to 1 µM.
On the same count and under the same terms, as for `COc1cc(NS(=O)(=O)c2cccc3cccnc23)ccc1C(=O)N1CC(OC(=O)NC(C)C)C1` [Compound 133, 1-(2-Methoxy-4-(quinoline-8-sulfonamido)benzoyl)azetidin-3-yl isopropylcarbamate], the figure is 0.1 to 1 µM; as for `CC(C)NC(=O)OC1CN(C(=O)c2ccc(NS(=O)(=O)c3cccc4cccnc34)c(F)c2)C1` [Compound 134, 1-(3-Fluoro-4-(quinoline-8-sulfonamido)benzoyl)azetidin-3-yl isopropylcarbamate], 1 to 10 µM.
Turning to `CC(C)NC(=O)OC1CN(C(=O)c2ccc(NS(=O)(=O)c3cccc4cccnc34)cc2)C1` [Compound 135, 1-(4-(Quinoline-8-sulfonamido)benzoyl)azetidin-3-yl isopropylcarbamate], the half-maximal activity concentration (AC50) lay within 1 to 10 µM.
Same read-out and setting: as for `O=C(c1ccc(NS(=O)(=O)c2cccc3cccnc23)cc1)N1CC(O)(c2ccccc2)C1` [Compound 136], the figure is 0.1 to 1 µM; as for `Cc1cc(C(=O)N2CC(O)(c3ccccc3)C2)ccc1NS(=O)(=O)c1cccc2cccnc12` [Compound 137], 0.1 to 1 µM; as for `COc1cc(NS(=O)(=O)c2cccc3cccnc23)ccc1C(=O)N1CC(O)(c2ccccc2)C1` [Compound 138], less than 0.1 µM.
In the case of `C=CCNC(=O)NC1CN(C(=O)c2ccc(NS(=O)(=O)c3cccc4cccnc34)cc2)C1` [Compound 139, N-(4-(3-(3-Allylureido)azetidine-1-carbonyl)phenyl)quinoline-8-sulfonamide], the AC50 lay within 1 to 10 µM.
Still for that read-out and setting: as for `C=CCNC(=O)NC1CN(C(=O)c2ccc(NS(=O)(=O)c3cccc4cccnc34)c(OC)c2)C1` [Compound 140, N-(4-(3-(3-Allylureido)azetidine-1-carbonyl)-2-methoxyphenyl)quinoline-8-sulfonamide], the figure is 1 to 10 µM.
As to `O=C(c1ccc(NS(=O)(=O)c2cccc3cccnc23)cc1)N1CC(O)C1` [Compound 141], the concentration at half-maximal activity (AC50) is more than 10 µM.
On the same count and under the same terms, as for `Cc1cc(C(=O)N2CC(O)C2)ccc1NS(=O)(=O)c1cccc2cccnc12` [Compound 142], the figure is 1 to 10 µM; as for `COc1cc(NS(=O)(=O)c2cccc3cccnc23)ccc1C(=O)N1CC(O)C1` [Compound 143], more than 10 µM.
Same read-out and setting: as for `Cc1cc(C(=O)N2CC(C)(O)C2)ccc1NS(=O)(=O)c1cccc2cccnc12` [Compound 144], the figure is 1 to 10 µM.
Consider `Cc1cc(C(=O)N2CC(Nc3ccccc3)C2)ccc1NS(=O)(=O)c1cccc2cccnc12` [Compound 145], for which the half-maximal activity concentration (AC50) was less than 0.1 µM.
